Results as given in ChEMBL document CHEMBL5523720, “Identification of novel GSPT1 degraders by virtual screening and bioassay” (Eur J Med Chem, 2024).
Calls of active or inactive are those of the source. No cut-off for these calls is given here.

How the values were obtained:
U-266 = test: Antiproliferative activity against human U-266 cells incubated for 48 hrs by MTS assay; format: functional, cell-based; settings: U-266, 48 h
U-937 [1] = test: Antiproliferative activity against human U-937 cells incubated for 48 hrs by MTS assay; format: functional, cell-based; settings: U-937, 48 h
K562 = test: Antiproliferative activity against human K562 cells incubated for 48 hrs by MTS assay; format: functional, cell-based; settings: K562, 48 h
OCI-AML2 [2] = test: Antiproliferative activity against human OCI-AML2 cells incubated for 48 hrs by MTS assay; format: functional, cell-based; settings: OCI-AML2, 48 h
[3] = target: Eukaryotic peptide chain release factor GTP-binding subunit ERF3A (Homo sapiens) (UniProt P15170); test: Induction of GSPT1 degradation in human OCI-AML2 cells at 1 uM incubated for 8 hrs by Western blotting analysis; format: cell-based
[4] = target: Eukaryotic peptide chain release factor GTP-binding subunit ERF3A (Homo sapiens) (UniProt P15170); test: Induction of GSPT1 degradation in human U-937 cells at 1 uM incubated for 8 hrs by Western blotting analysis; format: cell-based
[5] = target: T1, Protein cereblon/Eukaryotic peptide chain release factor GTP-binding subunit ERF3A (Homo sapiens) (UniProt Q96SW2+P15170); test: Induction of CRBN to GSPT1 protein-protein interaction in human U-937 cells at 1 uM pretreated with MG132 for 1 hr followed by compound addition and measured after 8 hrs by immunoprecipitation assay; format: cell-based; settings: filed as activator
U-937 [6] = test: Downregulation of GSPT1 in human U-937 cells at high concentration incubated for 8 hrs by Western blotting analysis; format: functional, cell-based
U-937 [7] = test: Downregulation of IKZF1 in human U-937 cells at high concentration incubated for 8 hrs by Western blotting analysis; format: functional, cell-based
U-937 [8] = test: Downregulation of CK1alpha in human U-937 cells at high concentration incubated for 8 hrs by Western blotting analysis; format: functional, cell-based
OCI-AML2 [9] = test: Downregulation of GSPT1 in human OCI-AML2 cells at high concentration incubated for 8 hrs by Western blotting analysis; format: functional, cell-based
OCI-AML2 [10] = test: Downregulation of IKZF1 in human OCI-AML2 cells at high concentration incubated for 8 hrs by Western blotting analysis; format: functional, cell-based
OCI-AML2 [11] = test: Downregulation of CK1alpha in human OCI-AML2 cells at high concentration incubated for 8 hrs by Western blotting analysis; format: functional, cell-based
[12] = target: Eukaryotic peptide chain release factor GTP-binding subunit ERF3A (Homo sapiens) (UniProt P15170); test: Induction of GSPT1 degradation in human U-937 cells with CHX pretreatment by Western blotting analysis; format: cell-based; settings: dose 20-40 µM
[13] = target: Eukaryotic peptide chain release factor GTP-binding subunit ERF3A (Homo sapiens) (UniProt P15170); test: Induction of GSPT1 degradation in human U-937 cells at 20 to 40 uM pretreated with MG132 for 1 hr followed by compound addition and measured after 8 hrs by Western blotting analysis; format: cell-based; settings: dose 20-40 µM
[14] = target: Eukaryotic peptide chain release factor GTP-binding subunit ERF3A (Homo sapiens) (UniProt P15170); test: Induction of GSPT1 degradation in human U-937 cells at 20 to 40 uM pretreated with MLN4924 followed by compound addition and measured after 8 hrs by Western blotting analysis; format: cell-based; settings: dose 20-40 µM
[15] = target: Eukaryotic peptide chain release factor GTP-binding subunit ERF3A (Homo sapiens) (UniProt P15170); test: Induction of GSPT1 degradation in human OCI-AML2 cells at 20 to 40 uM pretreated with MLN4924 followed by compound addition and measured after 8 hrs by Western blotting analysis; format: cell-based; settings: dose 20-40 µM
[16] = target: Eukaryotic peptide chain release factor GTP-binding subunit ERF3A (Homo sapiens) (UniProt P15170); test: Induction of GSPT1 degradation in human HEK293FT cells at 20 to 40 uM pretreated with MLN4924 for 1 hr followed by compound addition and measured after 8 hrs by Western blotting analysis; format: cell-based; settings: dose 20-40 µM
[17] = target: Protein cereblon (Homo sapiens) (UniProt Q96SW2); test: Binding affinity to recombinant CRBN (unknown origin) by SPR assay
[18] = target: T1, Protein cereblon/Eukaryotic peptide chain release factor GTP-binding subunit ERF3A (Homo sapiens); test: Induction of CRBN to GSPT1 protein-protein interaction in human U-937 cells at 20 uM pretreated with MG132 for 1 hr followed by compound addition and measured after 8 hrs by immunoprecipitation assay; format: cell-based; settings: filed as activator
[19] = target: T1, Protein cereblon/Eukaryotic peptide chain release factor GTP-binding subunit ERF3A (Homo sapiens); test: Binding affinity to CRBN/GSPT1 in human U-937 cells assessed as increase in protein stabilization incubated for 6 hrs by CETSA; format: cell-based; settings: filed as activator
U-937 [20] = test: Antiproliferative activity against CRBN knockdown human U-937 cells incubated for 48 hrs by MTS assay; format: functional, cell-based
OCI-AML2 [21] = test: Antiproliferative activity against GSPT1 knockout human OCI-AML2 cells incubated for 48 hrs by MTS assay; format: functional, cell-based
U-937 [22] = test: Induction of cell cycle arrest in human U-937 cells assessed as increase in G1 phase cells at 5 to 20 uM incubated for 24 hrs by propidium iodide staining based flow cytometry analysis; format: functional; settings: dose 5-20 µM
U-937 [23] = test: Induction of cell cycle arrest in human U-937 cells assessed as decrease in M phase cells at 5 to 20 uM incubated for 24 hrs by propidium iodide staining based flow cytometry analysis; format: functional; settings: dose 5-20 µM
OCI-AML2 [24] = test: Induction of cell cycle arrest in human OCI-AML2 cells assessed as increase in G1 phase cells at 5 to 20 uM incubated for 24 hrs by propidium iodide staining based flow cytometry analysis; format: functional; settings: dose 5-20 µM
OCI-AML2 [25] = test: Induction of cell cycle arrest in human OCI-AML2 cells assessed as decrease in M phase cells at 5 to 20 uM incubated for 24 hrs by propidium iodide staining based flow cytometry analysis; format: functional; settings: dose 5-20 µM
U-937 [26] = test: Induction of apoptosis in human U-937 cells assessed as increase in number of apoptotic cells at 5 to 20 uM incubated for 48 hrs by Annexin V-FITC/PI staining based flow cytometry analysis; format: functional, cell-based; settings: dose 5-20 µM
OCI-AML2 [27] = test: Induction of apoptosis in human OCI-AML2 cells assessed as increase in number of apoptotic cells at 5 to 20 uM incubated for 48 hrs by Annexin V-FITC/PI staining based flow cytometry analysis; format: functional, cell-based; settings: dose 5-20 µM
U-937 [28] = test: Upregulation of caspase 9 level in human U-937 cells at 5 to 20 uM incubated for 24 hrs by Western blotting assay; format: functional, cell-based; settings: dose 5-20 µM
U-937 [29] = test: Upregulation of PARP cleavage in human U-937 cells at 5 to 20 uM incubated for 24 hrs by Western blotting assay; format: functional, cell-based; settings: dose 5-20 µM
U-937 [30] = test: Upregulation of p21 level in human U-937 cells at 5 to 20 uM incubated for 24 hrs by Western blotting assay; format: functional, cell-based; settings: dose 5-20 µM
U-937 [31] = test: Downregulation of c-Myc level in human U-937 cells at 5 to 20 uM incubated for 24 hrs by Western blotting assay; format: functional, cell-based; settings: dose 5-20 µM
OCI-AML2 [32] = test: Upregulation of caspase 9 level in human OCI-AML2 cells at 5 to 20 uM incubated for 24 hrs by Western blotting assay; format: functional, cell-based; settings: dose 5-20 µM
OCI-AML2 [33] = test: Upregulation of PARP cleavage in human OCI-AML2 cells at 5 to 20 uM incubated for 24 hrs by Western blotting assay; format: functional, cell-based; settings: dose 5-20 µM
OCI-AML2 [34] = test: Upregulation of p21 level in human OCI-AML2 cells at 5 to 20 uM incubated for 24 hrs by Western blotting assay; format: functional, cell-based; settings: dose 5-20 µM
OCI-AML2 [35] = test: Downregulation of c-Myc level in human OCI-AML2 cells at 5 to 20 uM incubated for 24 hrs by Western blotting assay; format: functional, cell-based; settings: dose 5-20 µM

T1 sequence (P15170 whole entry, looked up): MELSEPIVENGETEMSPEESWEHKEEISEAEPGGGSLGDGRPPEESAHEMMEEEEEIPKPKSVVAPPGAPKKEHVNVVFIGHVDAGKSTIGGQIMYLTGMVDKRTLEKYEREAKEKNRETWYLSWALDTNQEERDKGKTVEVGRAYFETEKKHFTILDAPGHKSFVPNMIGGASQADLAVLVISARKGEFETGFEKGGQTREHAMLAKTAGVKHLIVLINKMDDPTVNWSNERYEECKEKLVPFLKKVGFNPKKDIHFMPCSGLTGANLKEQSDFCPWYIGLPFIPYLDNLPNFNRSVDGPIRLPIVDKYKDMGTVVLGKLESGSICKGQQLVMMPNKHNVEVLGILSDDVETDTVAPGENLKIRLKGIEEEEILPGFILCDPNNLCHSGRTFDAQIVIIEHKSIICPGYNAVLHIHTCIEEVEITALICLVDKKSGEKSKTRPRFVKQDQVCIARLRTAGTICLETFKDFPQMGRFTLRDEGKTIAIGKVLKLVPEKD
T1 sequence (Q96SW2 whole entry, looked up): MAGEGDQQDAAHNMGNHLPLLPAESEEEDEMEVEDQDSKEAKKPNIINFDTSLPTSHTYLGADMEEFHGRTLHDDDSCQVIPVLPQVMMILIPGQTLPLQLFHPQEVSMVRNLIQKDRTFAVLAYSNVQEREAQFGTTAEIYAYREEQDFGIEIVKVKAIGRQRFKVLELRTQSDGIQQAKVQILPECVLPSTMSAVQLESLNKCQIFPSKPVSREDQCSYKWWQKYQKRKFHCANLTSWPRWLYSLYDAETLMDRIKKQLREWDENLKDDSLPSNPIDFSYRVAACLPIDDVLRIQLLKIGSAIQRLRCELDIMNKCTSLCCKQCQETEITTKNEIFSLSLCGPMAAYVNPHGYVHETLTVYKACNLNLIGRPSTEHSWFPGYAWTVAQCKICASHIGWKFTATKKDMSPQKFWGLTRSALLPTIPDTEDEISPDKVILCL
Chain of Eukaryotic peptide chain release factor GTP-binding subunit ERF3A (Homo sapiens) (P15170 whole entry): as the sequence (P15170 whole entry, looked up) above
Chain of Protein cereblon (Homo sapiens) (Q96SW2 whole entry): as the sequence (Q96SW2 whole entry, looked up) above

SMILES: Cc1ccc2nc(C)c(C(=O)N/N=C/c3cccc(O)c3)cc2c1
- IC50 (U-266): > 40 µM
- IC50 (U-937 [1]): > 40 µM
- IC50 (K562): > 40 µM
- IC50 (OCI-AML2 [2]): > 40 µM

SMILES: Cc1ccc2nc(C)c(C(=O)N/N=C/c3cccnc3)cc2c1
- IC50 (U-266): > 40 µM
- IC50 (U-937 [1]): > 40 µM
- IC50 (K562): > 40 µM
- IC50 (OCI-AML2 [2]): > 40 µM

SMILES: CC(C)=NNC(=O)c1cc2cccc(C)c2nc1C
- IC50 (U-266): > 40 µM
- IC50 (U-937 [1]): > 40 µM
- IC50 (K562): > 40 µM
- IC50 (OCI-AML2 [2]): > 40 µM

SMILES: Cc1ccc2nc(C)c(C(=O)N/N=C/c3cccc([N+](=O)[O-])c3)cc2c1
- IC50 (U-266): > 40 µM
- IC50 (U-937 [1]): > 40 µM
- IC50 (K562): > 40 µM
- IC50 (OCI-AML2 [2]): > 40 µM

SMILES: O=C1CCC(N2Cc3cc(CNC(=O)C(F)(F)c4ccc(Cl)cc4)ccc3C2=O)C(=O)N1 (stereo not drawn)
- Activity [3]: Active
- IC50 (U-266): 0.04 µM
- IC50 (U-937 [1]): < 0.032 µM
- IC50 (K562): > 40 µM
- IC50 (OCI-AML2 [2]): 0.01 µM
- Activity [4]: Active
- Activity [5]: Active

SMILES: Cc1nc2c(C)cccc2cc1C(=O)N/N=C/c1ccccc1O
- IC50 (U-266): 3.8 µM
- IC50 (U-937 [1]): 4.49 µM
- IC50 (K562): 16.7 µM
- IC50 (OCI-AML2 [2]): 2.64 µM
- Activity (U-937 [6]): Active
- Activity (U-937 [7]): Active
- Activity (U-937 [8]): Active
- Activity (OCI-AML2 [9]): Active
- Activity (OCI-AML2 [10]): Active
- Activity (OCI-AML2 [11]): Active
- Activity [12]: Dose-Dependent Effect
- Activity [13]: inactive
- Activity [14]: inactive
- Activity [15]: inactive
- Activity [16]: inactive
- Activity [17]: Active
- Activity [18]: Active
- Activity [19]: Active
- Activity (U-937 [20]): inactive
- Activity (OCI-AML2 [21]): inactive
- Activity (U-937 [22]): Active
- Activity (U-937 [23]): Active
- Activity (OCI-AML2 [24]): Active
- Activity (OCI-AML2 [25]): Active
- Activity (U-937 [26]): Active
- Activity (OCI-AML2 [27]): Active
- Activity (U-937 [28]): Active
- Activity (U-937 [29]): Active
- Activity (U-937 [30]): Active
- Activity (U-937 [31]): Active
- Activity (OCI-AML2 [32]): Active
- Activity (OCI-AML2 [33]): Active
- Activity (OCI-AML2 [34]): Active
- Activity (OCI-AML2 [35]): Active

SMILES: Cc1nc2c(C)cccc2cc1C(=O)N/N=C/c1ccccc1Cl
- IC50 (U-266): 3.93 µM
- IC50 (U-937 [1]): 6.89 µM
- IC50 (K562): > 40 µM
- IC50 (OCI-AML2 [2]): 2.66 µM

SMILES: Cc1nc2ccccc2cc1C(=O)N/N=C/c1ccccc1O
- IC50 (U-266): 6.75 µM
- IC50 (U-937 [1]): 6.53 µM
- IC50 (K562): > 40 µM
- IC50 (OCI-AML2 [2]): 8.98 µM

SMILES: Cc1nc2ccccc2cc1C(=O)N/N=C/c1cccc([N+](=O)[O-])c1
- IC50 (U-266): > 40 µM
- IC50 (U-937 [1]): > 40 µM
- IC50 (K562): > 40 µM
- IC50 (OCI-AML2 [2]): > 40 µM

SMILES: Cc1nc2ccccc2cc1C(=O)N/N=C/c1ccccn1
- IC50 (U-266): > 40 µM
- IC50 (U-937 [1]): > 40 µM
- IC50 (K562): > 40 µM
- IC50 (OCI-AML2 [2]): > 40 µM
